Source: article PMC9516332 (Frontiers in Oncology, 2022)
Read-outs that look alike come from different tables or passages of the source.

Assays:
AP-1060 (ETV6-NTRK3) = assay: Cell viability assay; details: read-out: IC50 in cell proliferation assay
134 cancer cell lines = assay: Cell viability assay (ATPlite, 72 hours), IC50 on cancer cell line panel

CCn1c(=O)c(-c2cc(NC(=O)Nc3ccccc3)c(F)cc2Br)cc2cnc(NC)cc21 [ripretinib]
IC50 (AP-1060 (ETV6-NTRK3)): 2.83 µM | IC50 (134 cancer cell lines; HEC-6, read-out: IC50 in cell proliferation assay): 1.86 µM | IC50 (134 cancer cell lines; Homo sapiens, 769-P, read-out: IC50 in cell proliferation assay): 2.58 µM | IC50 (134 cancer cell lines; Homo sapiens, 786-0, read-out: IC50 in cell proliferation assay): 2.14 µM | IC50 (134 cancer cell lines; Homo sapiens, A 172, read-out: IC50 in cell proliferation assay): 4.96 µM | IC50 (134 cancer cell lines; Homo sapiens, A204, read-out: IC50 in cell proliferation assay): 0.52 µM | IC50 (134 cancer cell lines; Homo sapiens, A498, read-out: IC50 in cell proliferation assay): 1.14 µM | IC50 (134 cancer cell lines; Homo sapiens, A549, read-out: IC50 in cell proliferation assay): 2.69 µM | IC50 (134 cancer cell lines; Homo sapiens, A704, read-out: IC50 in cell proliferation assay): 2.21 µM | IC50 (134 cancer cell lines; Homo sapiens, A-375, read-out: IC50 in cell proliferation assay): 2.92 µM | IC50 (134 cancer cell lines; Homo sapiens, A-427, read-out: IC50 in cell proliferation assay): 1.52 µM | IC50 (134 cancer cell lines; Homo sapiens, ACHN, read-out: IC50 in cell proliferation assay): 1.47 µM | IC50 (134 cancer cell lines; Homo sapiens, AN3-CA, read-out: IC50 in cell proliferation assay): 1.01 µM | IC50 (134 cancer cell lines; Homo sapiens, ASPC1, read-out: IC50 in cell proliferation assay): 7.56 µM | IC50 (134 cancer cell lines; Homo sapiens, AU565, read-out: IC50 in cell proliferation assay): 3.75 µM | IC50 (134 cancer cell lines; Homo sapiens, BT-20, read-out: IC50 in cell proliferation assay): 7.43 µM | IC50 (134 cancer cell lines; Homo sapiens, BT-474, read-out: IC50 in cell proliferation assay): 2.23 µM | IC50 (134 cancer cell lines; Homo sapiens, BT-549, read-out: IC50 in cell proliferation assay): 4.51 µM | IC50 (134 cancer cell lines; Homo sapiens, BXPC-3, read-out: IC50 in cell proliferation assay): 1.51 µM | IC50 (134 cancer cell lines; Homo sapiens, C-33-A, read-out: IC50 in cell proliferation assay): 4.83 µM | IC50 (134 cancer cell lines; Homo sapiens, CAL-27, read-out: IC50 in cell proliferation assay): 9.8 µM | IC50 (134 cancer cell lines; Homo sapiens, CCF-STTG1, read-out: IC50 in cell proliferation assay): > 31.6 µM | IC50 (134 cancer cell lines; Homo sapiens, CCRF-CEM, read-out: IC50 in cell proliferation assay): 4.98 µM | IC50 (134 cancer cell lines; Homo sapiens, COLO 205, read-out: IC50 in cell proliferation assay): 1.87 µM | IC50 (134 cancer cell lines; Homo sapiens, COLO-829, read-out: IC50 in cell proliferation assay): 2.49 µM | IC50 (134 cancer cell lines; Homo sapiens, DLD-1, read-out: IC50 in cell proliferation assay): 1.54 µM | IC50 (134 cancer cell lines; Homo sapiens, DU-145, read-out: IC50 in cell proliferation assay): 1.97 µM | IC50 (134 cancer cell lines; Homo sapiens, DU-4475, read-out: IC50 in cell proliferation assay): 3.38 µM | IC50 (134 cancer cell lines; Homo sapiens, Daoy, read-out: IC50 in cell proliferation assay): 2.06 µM | IC50 (134 cancer cell lines; Homo sapiens, DoTc2-4510, read-out: IC50 in cell proliferation assay): 6.21 µM | IC50 (134 cancer cell lines; Homo sapiens, EOL1, read-out: IC50 in cell proliferation assay): 0.000634 µM | IC50 (134 cancer cell lines; Homo sapiens, FaDu, read-out: IC50 in cell proliferation assay): 3.05 µM | IC50 (134 cancer cell lines; Homo sapiens, G-361, read-out: IC50 in cell proliferation assay): 2.52 µM | IC50 (134 cancer cell lines; Homo sapiens, HCC827, read-out: IC50 in cell proliferation assay): 3.83 µM | IC50 (134 cancer cell lines; Homo sapiens, HCC4006, read-out: IC50 in cell proliferation assay): > 31.6 µM | IC50 (134 cancer cell lines; Homo sapiens, HCT-15, read-out: IC50 in cell proliferation assay): 2.56 µM | IC50 (134 cancer cell lines; Homo sapiens, HCT-116, read-out: IC50 in cell proliferation assay): 3.02 µM | IC50 (134 cancer cell lines; Homo sapiens, HEC-1, read-out: IC50 in cell proliferation assay): 1.36 µM | IC50 (134 cancer cell lines; Homo sapiens, HEC-1B, read-out: IC50 in cell proliferation assay): 0.426 µM | IC50 (134 cancer cell lines; Homo sapiens, HL-60, read-out: IC50 in cell proliferation assay): 1.81 µM | IC50 (134 cancer cell lines; Homo sapiens, HT, read-out: IC50 in cell proliferation assay): > 31.6 µM | IC50 (134 cancer cell lines; Homo sapiens, HT-1080, read-out: IC50 in cell proliferation assay): 1.7 µM | IC50 (134 cancer cell lines; Homo sapiens, Hs746T, read-out: IC50 in cell proliferation assay): 3.1 µM | IC50 (134 cancer cell lines; Homo sapiens, Hs-578T, read-out: IC50 in cell proliferation assay): 3.73 µM | IC50 (134 cancer cell lines; Homo sapiens, HuTu80, read-out: IC50 in cell proliferation assay): 1.58 µM | IC50 (134 cancer cell lines; Homo sapiens, J82, read-out: IC50 in cell proliferation assay): 2.3 µM | IC50 (134 cancer cell lines; Homo sapiens, Jurkat E6.1, read-out: IC50 in cell proliferation assay): 2.64 µM | IC50 (134 cancer cell lines; Homo sapiens, K562, read-out: IC50 in cell proliferation assay): 1.85 µM | IC50 (134 cancer cell lines; Homo sapiens, KATO III, read-out: IC50 in cell proliferation assay): 0.676 µM | IC50 (134 cancer cell lines; Homo sapiens, KG-1, read-out: IC50 in cell proliferation assay): 0.59 µM | IC50 (134 cancer cell lines; Homo sapiens, KLE, read-out: IC50 in cell proliferation assay): 9.98 µM | IC50 (134 cancer cell lines; Homo sapiens, KMS-11, read-out: IC50 in cell proliferation assay): 4.57 µM | IC50 (134 cancer cell lines; Homo sapiens, KU812, read-out: IC50 in cell proliferation assay): 0.85 µM | IC50 (134 cancer cell lines; Homo sapiens, Kasumi 1, read-out: IC50 in cell proliferation assay): 0.055 µM | IC50 (134 cancer cell lines; Homo sapiens, LC-2-ad, read-out: IC50 in cell proliferation assay): 5.38 µM | IC50 (134 cancer cell lines; Homo sapiens, LNCaP-Clone-FGC, read-out: IC50 in cell proliferation assay): 4.88 µM | IC50 (134 cancer cell lines; Homo sapiens, LS174T, read-out: IC50 in cell proliferation assay): 9.31 µM | IC50 (134 cancer cell lines; Homo sapiens, LS-411N, read-out: IC50 in cell proliferation assay): 2.72 µM | IC50 (134 cancer cell lines; Homo sapiens, LoVo, read-out: IC50 in cell proliferation assay): 3.04 µM | IC50 (134 cancer cell lines; Homo sapiens, MCF7, read-out: IC50 in cell proliferation assay): > 31.6 µM
